{"source": "patent US11058700B2", "about": "“Macrocyclic lactones and uses thereof as modulators of purinergic receptors” (City of Hope, priority 2015, dated 2021)", "assay_type_in_all_cases": "cell-based, mouse", "key": {"4T1.2 cells [1]": {"test_system": "4T1.2 cells", "assay": "Colony assay, 4T1.2 cells seeded at 100 cells/well, colonies counted after a week", "conditions": "extended exposure time (Ivermectin during the entire duration of the assay)", "experimental": "FIGS. 1A-1H. Ivermectin kills breast cancer cells through a mixed apoptotic and necrotic mechanism. FIG. 1A: Mouse (4T1.2) and human (MDA-MB-231) TNBC cells manifest similar sensitivity to Ivermectin. Viability of cells treated with various doses of Ivermectin for 24 h. FIG. 1B: Extended exposure time reduces IC50 values to as low as 2 μM. 4T1.2 cells were seeded at 100 cells/well and individual colonies were counted after a week. Cancer cells were exposed to Ivermectin during the initial 24 h or during the entire duration of the assay. FIG. 1C: MDA-MB-231 breast cancer cells manifest higher sensitivity to Ivermectin compared to normal non-transformed human foreskin fibroblasts (HFFs). FIG. 1D: Flow cytometry analysis showing that cell death proceeds through two distinct pathways: a directly necrotic 7AAD-single positive or Annexin V/PS-single positive apoptotic pathway. FIG. 1E: Kinetics of necrotic versus apoptotic killing of 4T1.2 breast cancer cells. FIG. 1F: Ivermectin-induced cell death can be reversed by inhibition of various controlled cell death pathways. 4T1.2 cells were treated for 4 h with 32 μM Ivermectin in the presence of μM concentrations of Z-vad-fmk, Necrostatin-1, Digoxin, or VX-765, as indicated. FIG. 1G: Activation of Caspase-1, Caspase-3 and cleavage of PARP in 4T1.2 and MDA-MB-231 cells treated with 32 μM for 4 h. […]"}, "4T1.2 cells [2]": {"test_system": "4T1.2 cells", "assay": "Cytosolic Ca2+ flux", "experimental": "Cytosolic Ca^2+ flux. Cancer cells in suspension were washed with PBS and loaded with 1 μM Rhod-3 AM (Life Technologies, R10145) for 30 min at room temperature in the dark. Cells were washed with PBS couple of times and treated with various doses of Ivermectin in R10 medium. Cells were incubated for 15 min to 4 h in 5 ml FACS tubes at 37° C. and 5% CO2, followed by immediate flow cytometry analysis of fluorescence in the PE channel. Chelating of extracellular and intracellular Ca^2+ was performed by supplementing the Ivermectin treatment medium with 1 mM EDTA (USB Corp, 15694) or by adding 20 μM BAPTA-AM (Tocris, 2787) to the Rhod-3 AM loading solution, respectively."}, "[3]": {"test_system": "murine and human TNBC cells", "assay": "HMGB1 and LDH Release", "experimental": "FIGS. 6A-6E. Ivermectin induces autophagy. FIG. 6A: Ivermectin induces autophagy in breast cancer cells. MDA-MB-231 GFL-LC3 cells were treated with different doses of Ivermectin for 24 h and formation of green fluorescent puncta was evaluated by confocal fluorescence microscopy. FIG. 6B: Western blot confirming the induction of autophagy in both murine and human breast cancer cells, as evidenced by LC3 lipidation and autophagic degradation of p62(SQSTM1). […] MDA-MB-231 cells (triplicates) were treated with different doses of Ivermectin for up to 24h and surface stained with antibody-specific for the human M6P receptor versus isotype control. Similarly, 4T1.2 and MB231 cells were treated with different doses of Ivermectin for 4-24 h, and were stained with an antibody specific for both human and mouse CRT versus isotype control. Mean fluorescent intensity (MFI) values and ratios versus isotype control were calculated after gating on live/membrane-intact cells. FIG. 6D: Ivermectin (32 μM) induces release of HMGB1 from murine and human TNBC cells (triplicates). […] Asterisk (*) indicates p<0.05 relative to untreated or Ivermectin alone controls, respectively.\nHMGB1 and LDH Release. HMGB1 and LDH release were evaluated using an HMGB1 detection kit (IBL International, ST51011) and the CYTOTOX96® Non Radioactive Cytotoxicity Assay (Promega, G1780),following manufacturers' instructions."}, "4T1.2 cells [4]": {"test_system": "4T1.2 cells", "assay": "Cell viability (acid phosphatase assay) of cancer cells treated with Ivermectin", "conditions": "mouse and human breast cancer cells", "experimental": "Cell viability. Cancer cells were plated on 96 well flat-bottom plates and allowed to attach overnight. Cells were then pre-incubated with drugs for 1 h and treated with Ivermectin for 4 h. In the case of 24 h and 48 h incubations the cells, Ivermectin and drugs were plated together. All treatments and controls were done in triplicate wells and results were validated in at least two independent experiments. Following treatment the plates were washed once with PBS and cell viability was measured using the acid phosphatase assay. Briefly, cells were incubated for 1h at 37° C. in 100 μL assay buffer (0.16 M sodium acetate, 0.1% Triton-X-100, supplemented with 4-Nitrophenyl phosphate disodium salt hexahydrate, Sigma Aldrich, at 0.00263 g/ml). Reaction was stopped using 10 μL of 1N sodium hydroxide. Absorption at 405 nm was measured within 10 min using a multi-well plate reader. Mode of cell death and viability of cells in suspension was evaluated using flow cytometry. Briefly, cancer cells were pre-incubated with drugs for 30 min to 1 h, as indicated, treated with Ivermectin for 4 h in 5 ml FACS tubes , washed twice in PBS and stained with PE-conjugated Annexin V and 7AAD (1 μl per 100 μl/200,000 cancer cells) for 15 min."}, "4T1.2 cells [5]": {"test_system": "4T1.2 cells", "assay": "Mitochondrial membrane potential (JC-1)", "experimental": "FIGS. 4A-4D. Excessive Ca^2+/CaMKII signaling and MPTP contribute to cell death. FIG. 4A: Kinetics of cytosolic Ca^2+ increase in 4T1.2 cells treated with Ivermectin. […] 4T1.2 cells were treated for 4 h with 32 μM Ivermectin in the presence of the P2X7/CaMKII dual inhibitor KN-62 or the CaMKII-specific inhibitor KN-63, at μM concentrations as indicated. FIG. 4C: Flow cytometry analysis of JC-1 loaded 4T1.2 cells showing that high doses of Ivermectin result in a sudden mitochondrial de-polarization, while lower doses cause similar effects but after transient hyper-polarization. FIG. 4D: MPTP contributes to Ivermectin. 4T1.2 cells were treated for 4 h with 32 μM Ivermectin in the presence of the MPTP inhibitor Cyclosporin A at μM concentrations as indicated. Asterisk (*) indicates p<0.05 relative to untreated or Ivermectin alone controls, respectively.\nMitochondrial membrane potential. Cancer cells in suspension were washed with PBS and loaded with 2 μM JC-1 (Life Technologies, T3168) for 15 min at room temperature in the dark. Cells were washed twice with PBS and treated with various doses of Ivermectin in R10 medium. Cells were incubated for 1 h/4 h in 5 ml FACS tubes at 37° C. and 5% CO2. After 1h/4h of treatment cells were analyzed by flow cytometry. Mitochondrial polarization was evaluated by measuring the corresponding changes in fluorescence in the FITC and PE channels. […]"}}}
{"molecule": "CC[C@H](C)[C@H]1O[C@]2(CC[C@@H]1C)C[C@@H]1C[C@@H](C/C=C(\\C)[C@@H](O[C@H]3C[C@H](OC)[C@@H](O[C@H]4C[C@H](OC)[C@@H](O)[C@H](C)O4)[C@H](C)O3)[C@@H](C)/C=C/C=C3\\CO[C@@H]4[C@H](O)C(C)=C[C@@H](C(=O)O1)[C@]34O)O2", "note": "[Ivermectin]", "values": [{"measurement": "IC50", "setting": "4T1.2 cells [1]", "result": "≥ 2000", "unit": "nM"}, {"measurement": "cytosolic Ca2+", "setting": "4T1.2 cells [2]", "result": "sustained increases in cytosolic Ca^2+"}, {"measurement": "HMGB1 release", "setting": "[3]; 32 μM", "result": "potent inducer of HMGB1 release"}, {"measurement": "LDH release", "setting": "[3]; normalized to maximum release (lysis)", "result": "induces release of cytosolic LDH"}, {"measurement": "Ivermectin doses giving rapid killing", "setting": "4T1.2 cells [4]", "result": "≥ 8", "unit": "µM"}, {"measurement": "mitochondrial polarization", "setting": "4T1.2 cells [5]; high doses of Ivermectin, massive cell death", "result": "sudden depolarization of mitochondria"}, {"measurement": "mitochondrial polarization", "setting": "4T1.2 cells [5]; lower doses of Ivermectin", "result": "mitochondrial hyperpolarization"}]}
